# Results: patent US20050014810A1, “Use of substituted 2 phenylbenzimidazoles as medicaments” (Boehringer Ingelheim International GmbH, priority 2003, published 2005)
# Structures can show the parent of a compound that is named as a salt.
row,SMILES,melting point
1,CC(=O)Nc1cccc(-c2ccc3c(c2)nc(-c2cccc(OCC(=O)O)c2)n3C[C@]2(C)CCC[C@]3(C)c4ccc(C(C)C)cc4CC[C@@H]23)c1,175 °C (dec.)
2,CC(C)c1ccc2c(c1)CC[C@H]1[C@](C)(Cn3c(-c4cccc(OCC(=O)O)c4)nc4cc(-c5cccc(NS(C)(=O)=O)c5)ccc43)CCC[C@]21C,166 °C (dec.)
3,CC(C)c1ccc2c(c1)CC[C@H]1[C@](C)(Cn3c(-c4cccc(NC(=O)C(=O)O)c4)nc4cc(-c5ccccc5)ccc43)CCC[C@]21C,235 °C
4,CC(C)c1ccc2c(c1)CC[C@H]1[C@](C)(Cn3c(-c4ccc(CCC(=O)O)cc4)nc4cc(-c5ccccc5)ccc43)CCC[C@]21C,298 to 300 °C
5,CC(C)c1ccc2c(c1)CC[C@H]1[C@](C)(Cn3c(-c4cccc(N5CCC(C(=O)O)CC5)c4)nc4cc(-c5ccccc5)ccc43)CCC[C@]21C,166 to 178 °C
6,CC(C)c1ccc2c(c1)CC[C@H]1[C@](C)(Cn3c(-c4cccc(OCCCC(=O)O)c4)nc4cc(-c5ccccc5)ccc43)CCC[C@]21C,144 to 151 °C
7,CC(C)c1ccc2c(c1)CC[C@H]1[C@](C)(Cn3c(-c4cccc(NCC(=O)O)c4)nc4cc(-c5ccccc5)ccc43)CCC[C@]21C,180 °C
8,CC(C)c1ccc2c(c1)CC[C@H]1[C@](C)(Cn3c(-c4cc(OCC(=O)O)ccc4N)nc4cc(-c5ccccc5)ccc43)CCC[C@]21C,> 295 °C (dec.)
9,CC(=O)Nc1ccc(OCC(=O)O)cc1-c1nc2cc(-c3ccccc3)ccc2n1C[C@]1(C)CCC[C@]2(C)c3ccc(C(C)C)cc3CC[C@@H]12,179 °C
10,CC(C)c1ccc2c(c1)CC[C@H]1[C@](C)(Cn3c(-c4cc(OCC(=O)O)ccc4NC(=O)C(F)(F)F)nc4cc(-c5ccccc5)ccc43)CCC[C@]21C,168 to 172 °C
11,CC(C)c1ccc2c(c1)CC[C@H]1[C@](C)(Cn3c(-c4cccc(NC(=O)CC(=O)O)c4)nc4cc(-c5ccccc5)ccc43)CCC[C@]21C,210 to 215 °C
12,CC(C)c1ccc2c(c1)CC[C@H]1[C@](C)(Cn3c(-c4cccc(NC(=O)Cc5nnn[nH]5)c4)nc4cc(-c5ccccc5)ccc43)CCC[C@]21C,200 °C
13,COc1cc(OCCCC(=O)O)ccc1-c1nc2cc(/C=C/c3ccccc3)ccc2n1C[C@]1(C)CCC[C@]2(C)c3ccc(C(C)C)cc3CC[C@@H]12,59 to 72 °C
14,CC(C)c1ccc2c(c1)CC[C@H]1[C@](C)(Cn3c(-c4cccc(OCC(=O)O)c4)nc4cc(-c5cccc([NH+]([O-])O)c5)ccc43)CCC[C@]21C (stereo partly shown),258 to 262 °C
15,COc1cc(OCCCC(=O)O)ccc1-c1nc2cc(-c3cccc(C#N)c3)ccc2n1C[C@]1(C)CCC[C@]2(C)c3ccc(C(C)C)cc3CC[C@@H]12,185 °C
16,CC(C)c1ccc2c(c1)CC[C@H]1[C@](C)(Cn3c(-c4cccc(OCC(=O)O)c4)nc4cc(-c5cccc(O)c5)ccc43)CCC[C@]21C,238 to 242 °C
17,CC(C)c1ccc2c(c1)CC[C@H]1[C@](C)(Cn3c(-c4cccc(OCC(=O)O)c4)nc4cc(-c5ccccc5N)ccc43)CCC[C@]21C,186 to 190 °C
18,CC(C)c1ccc2c(c1)CC[C@H]1[C@](C)(Cn3c(-c4cccc(OCC(=O)O)c4)nc4cc(-c5cccc(CN6CCOCC6)c5)ccc43)CCC[C@]21C (as salt: trifluoroacetate),133 °C (dec.)
19,CC(C)c1ccc2c(c1)CC[C@H]1[C@](C)(Cn3c(-c4cccc(OCC(=O)O)c4)nc4cc(-c5cccc(CN(C)C)c5)ccc43)CCC[C@]21C (as salt: trifluoroacetate),127 °C
